From publication PMC4904262 (ACS Medicinal Chemistry Letters, 2016)

Experiments:
P70S6K = P70S6K (Homo sapiens, UniProt P23443); conditions: 1 µM, ATP at Km
MAPKAP-K3 = MAPKAP-K3 (Homo sapiens, UniProt Q16644); conditions: 1 µM, ATP at Km
in vitro = conditions: human, microsomes
[1] = molecular target: CDK8 in the presence of cyclin C (Homo sapiens, UniProt P49336); assay: biochemical; conditions: read-out: CDK8 residence time ± SD
PKA = PKA (Homo sapiens, UniProt P17612); conditions: 1 µM, ATP at Km
Caco-2 = conditions: human
aldehyde oxidase = aldehyde oxidase (Homo sapiens, UniProt Q06278)
CDK9/CYCLINT1 = CDK9/CYCLINT1 (Homo sapiens, UniProt P50750); conditions: 1 µM, ATP at Km
ABL (M351T) = ABL (M351T) (Homo sapiens, UniProt P00519, M351T); conditions: 1 µM, ATP at Km
HCK = HCK (Homo sapiens, UniProt P08631); conditions: HCK (second listing, page 11); 1 µM; ATP at Km
PI3 KINASE (H1047R/P85A) = PI3 KINASE (H1047R/P85A) (Homo sapiens, UniProt P42336, H1047R); conditions: 1 µM, ATP at Km
CHK2(R145W) = CHK2(R145W) (Homo sapiens, UniProt O96017, R145W); conditions: 1 µM, ATP at Km
PI3 KINASE (E542K/P85A) = PI3 KINASE (E542K/P85A) (Homo sapiens, UniProt P42336, E542K); conditions: PI3 KINASE (E542K/P85A) (first listing); 1 µM; ATP at Km
cMET (M1268T) = cMET (M1268T) (Homo sapiens, UniProt P08581, M1250T); conditions: 1 µM, ATP at Km
BTK(R28H) = BTK(R28H) (Homo sapiens, UniProt Q06187, R28H); conditions: 1 µM, ATP at Km
FGFR2(N549H) = FGFR2(N549H) (Homo sapiens, UniProt P21802, N549H); conditions: 1 µM, ATP at Km
FLT3(D835Y) = FLT3(D835Y) (Homo sapiens, UniProt P36888, D835Y); conditions: 1 µM, ATP at Km
cMET (Y1248H) = cMET (Y1248H) (Homo sapiens, UniProt P08581, Y1230H); conditions: 1 µM, ATP at Km
EGFR(L858R) = EGFR(L858R) (Homo sapiens, UniProt P00533, L858R); conditions: 1 µM, ATP at Km
MKK4 = MKK4 (Mus musculus, UniProt P47809); conditions: 1 µM, ATP at Km
ABL(Y253F) = ABL(Y253F) (Homo sapiens, UniProt P00519, Y253F); conditions: 1 µM, ATP at Km
TIE2(R849W) = TIE2(R849W) (Homo sapiens, UniProt Q02763, R849W); conditions: 1 µM, ATP at Km
[…](V561D) = […](V561D) (Homo sapiens, UniProt P16234, V561D); conditions: 1 µM, ATP at Km
CHK2(I157T) = CHK2(I157T) (Homo sapiens, UniProt O96017, I157T); conditions: 1 µM, ATP at Km
cMET (Y1248C) = cMET (Y1248C) (Homo sapiens, UniProt P08581, Y1230C); conditions: 1 µM, ATP at Km
RET (V804L) = RET (V804L) (Homo sapiens, UniProt P07949, V804L); conditions: 1 µM, ATP at Km
SAPK2A(T106M) = SAPK2A(T106M) (Homo sapiens, UniProt Q16539, T106M); conditions: 1 µM, ATP at Km
TIE2(Y897S) = TIE2(Y897S) (Homo sapiens, UniProt Q02763, Y897S); conditions: 1 µM, ATP at Km

Sequence of BTK(R28H) (Q06187 whole entry R28H): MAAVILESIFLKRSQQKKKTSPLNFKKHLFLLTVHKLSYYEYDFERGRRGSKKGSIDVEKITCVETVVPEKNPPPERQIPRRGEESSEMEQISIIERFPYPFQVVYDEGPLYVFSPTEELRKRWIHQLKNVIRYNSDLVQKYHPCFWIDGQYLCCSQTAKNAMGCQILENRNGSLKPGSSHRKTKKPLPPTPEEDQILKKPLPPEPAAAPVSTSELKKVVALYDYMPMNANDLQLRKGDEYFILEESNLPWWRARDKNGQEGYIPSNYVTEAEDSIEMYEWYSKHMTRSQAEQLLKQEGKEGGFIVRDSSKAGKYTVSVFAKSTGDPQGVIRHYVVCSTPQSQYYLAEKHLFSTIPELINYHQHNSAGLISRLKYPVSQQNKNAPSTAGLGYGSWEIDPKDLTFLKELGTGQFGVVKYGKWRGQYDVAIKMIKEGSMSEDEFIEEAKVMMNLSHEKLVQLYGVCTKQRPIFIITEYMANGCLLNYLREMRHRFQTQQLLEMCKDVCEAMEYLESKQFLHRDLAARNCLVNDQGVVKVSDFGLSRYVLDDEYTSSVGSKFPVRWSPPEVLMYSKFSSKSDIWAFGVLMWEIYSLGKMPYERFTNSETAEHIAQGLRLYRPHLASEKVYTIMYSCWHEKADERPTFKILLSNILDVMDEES
Sequence of SAPK2A(T106M) (Q16539 whole entry T106M): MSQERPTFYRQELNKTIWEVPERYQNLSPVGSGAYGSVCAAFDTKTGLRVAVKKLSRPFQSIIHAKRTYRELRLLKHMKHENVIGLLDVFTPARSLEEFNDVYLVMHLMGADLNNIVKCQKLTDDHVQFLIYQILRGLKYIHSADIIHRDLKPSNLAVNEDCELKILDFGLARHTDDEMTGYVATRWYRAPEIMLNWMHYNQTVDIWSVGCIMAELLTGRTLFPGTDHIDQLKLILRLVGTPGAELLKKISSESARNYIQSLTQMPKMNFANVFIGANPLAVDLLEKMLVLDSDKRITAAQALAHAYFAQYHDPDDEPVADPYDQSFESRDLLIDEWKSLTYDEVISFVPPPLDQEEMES
Sequence of RET (V804L) (P07949 29-1114 V804L): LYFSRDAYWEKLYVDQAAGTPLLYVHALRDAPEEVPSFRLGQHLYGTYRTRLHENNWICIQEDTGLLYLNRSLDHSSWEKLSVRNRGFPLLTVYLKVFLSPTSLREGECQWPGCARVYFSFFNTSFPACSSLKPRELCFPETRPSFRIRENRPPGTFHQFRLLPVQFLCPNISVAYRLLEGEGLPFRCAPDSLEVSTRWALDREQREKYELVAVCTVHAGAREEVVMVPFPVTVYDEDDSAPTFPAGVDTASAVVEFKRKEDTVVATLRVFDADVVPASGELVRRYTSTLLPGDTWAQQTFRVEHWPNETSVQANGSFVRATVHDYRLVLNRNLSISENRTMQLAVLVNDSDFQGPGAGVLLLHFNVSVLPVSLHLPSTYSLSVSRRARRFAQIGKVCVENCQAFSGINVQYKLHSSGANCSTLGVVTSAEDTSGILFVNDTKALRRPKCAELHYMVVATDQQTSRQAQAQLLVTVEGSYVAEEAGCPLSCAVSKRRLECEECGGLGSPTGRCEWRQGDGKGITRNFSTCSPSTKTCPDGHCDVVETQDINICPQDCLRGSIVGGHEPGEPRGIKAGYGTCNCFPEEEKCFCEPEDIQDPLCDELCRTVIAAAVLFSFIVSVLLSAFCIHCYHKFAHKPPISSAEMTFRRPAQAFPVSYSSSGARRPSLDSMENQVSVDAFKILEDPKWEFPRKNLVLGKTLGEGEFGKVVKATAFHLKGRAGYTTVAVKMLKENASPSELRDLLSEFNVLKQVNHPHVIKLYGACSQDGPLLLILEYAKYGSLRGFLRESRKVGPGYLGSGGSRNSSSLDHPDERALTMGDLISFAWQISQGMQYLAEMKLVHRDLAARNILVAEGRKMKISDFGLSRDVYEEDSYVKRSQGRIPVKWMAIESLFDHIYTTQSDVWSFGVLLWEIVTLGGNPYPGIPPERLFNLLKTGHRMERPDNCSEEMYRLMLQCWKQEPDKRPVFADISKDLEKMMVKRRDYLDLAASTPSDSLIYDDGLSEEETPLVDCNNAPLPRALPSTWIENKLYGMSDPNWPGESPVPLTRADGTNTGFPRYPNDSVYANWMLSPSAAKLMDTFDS
Sequence of MAPKAP-K3 (Q16644 whole entry): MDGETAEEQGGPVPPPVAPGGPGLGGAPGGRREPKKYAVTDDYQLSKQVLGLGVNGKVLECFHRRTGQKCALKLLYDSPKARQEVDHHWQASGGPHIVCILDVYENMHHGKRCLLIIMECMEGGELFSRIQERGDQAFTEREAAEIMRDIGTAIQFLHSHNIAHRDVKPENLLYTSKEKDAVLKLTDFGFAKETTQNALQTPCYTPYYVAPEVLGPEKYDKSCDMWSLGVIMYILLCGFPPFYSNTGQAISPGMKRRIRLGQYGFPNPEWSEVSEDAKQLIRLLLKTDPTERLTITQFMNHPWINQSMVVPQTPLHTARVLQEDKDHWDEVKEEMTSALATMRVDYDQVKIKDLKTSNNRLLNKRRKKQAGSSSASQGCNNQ
Sequence of TIE2(R849W) (Q02763 23-1124 R849W): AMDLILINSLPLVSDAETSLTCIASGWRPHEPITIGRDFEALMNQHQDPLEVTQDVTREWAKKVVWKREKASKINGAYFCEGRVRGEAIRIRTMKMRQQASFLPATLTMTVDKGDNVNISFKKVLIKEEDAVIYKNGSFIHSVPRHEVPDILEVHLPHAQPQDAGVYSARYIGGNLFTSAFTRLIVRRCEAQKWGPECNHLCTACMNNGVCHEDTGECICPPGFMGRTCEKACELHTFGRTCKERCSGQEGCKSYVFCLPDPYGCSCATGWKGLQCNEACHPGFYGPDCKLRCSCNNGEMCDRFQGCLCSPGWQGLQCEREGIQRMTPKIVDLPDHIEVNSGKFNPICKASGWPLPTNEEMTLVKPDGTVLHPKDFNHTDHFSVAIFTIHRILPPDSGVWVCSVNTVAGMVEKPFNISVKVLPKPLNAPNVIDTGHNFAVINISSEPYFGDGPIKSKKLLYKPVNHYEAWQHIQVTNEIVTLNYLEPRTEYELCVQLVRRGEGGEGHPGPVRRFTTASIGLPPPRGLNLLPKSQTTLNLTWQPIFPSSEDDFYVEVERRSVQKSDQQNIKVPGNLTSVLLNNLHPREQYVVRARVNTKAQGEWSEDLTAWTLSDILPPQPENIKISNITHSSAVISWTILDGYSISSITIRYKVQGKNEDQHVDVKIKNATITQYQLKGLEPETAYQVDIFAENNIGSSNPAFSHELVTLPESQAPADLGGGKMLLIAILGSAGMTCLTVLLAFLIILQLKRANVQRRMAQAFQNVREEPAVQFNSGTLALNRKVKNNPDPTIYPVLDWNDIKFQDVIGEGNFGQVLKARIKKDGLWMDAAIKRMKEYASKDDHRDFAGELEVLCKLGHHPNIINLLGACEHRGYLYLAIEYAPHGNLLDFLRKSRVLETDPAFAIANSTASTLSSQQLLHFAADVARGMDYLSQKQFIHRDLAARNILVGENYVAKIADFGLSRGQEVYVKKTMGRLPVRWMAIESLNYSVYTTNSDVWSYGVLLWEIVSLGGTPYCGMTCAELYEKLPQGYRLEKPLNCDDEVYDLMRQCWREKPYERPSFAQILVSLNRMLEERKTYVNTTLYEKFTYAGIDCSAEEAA
Sequence of MKK4 (P47809 2-397 limits assumed): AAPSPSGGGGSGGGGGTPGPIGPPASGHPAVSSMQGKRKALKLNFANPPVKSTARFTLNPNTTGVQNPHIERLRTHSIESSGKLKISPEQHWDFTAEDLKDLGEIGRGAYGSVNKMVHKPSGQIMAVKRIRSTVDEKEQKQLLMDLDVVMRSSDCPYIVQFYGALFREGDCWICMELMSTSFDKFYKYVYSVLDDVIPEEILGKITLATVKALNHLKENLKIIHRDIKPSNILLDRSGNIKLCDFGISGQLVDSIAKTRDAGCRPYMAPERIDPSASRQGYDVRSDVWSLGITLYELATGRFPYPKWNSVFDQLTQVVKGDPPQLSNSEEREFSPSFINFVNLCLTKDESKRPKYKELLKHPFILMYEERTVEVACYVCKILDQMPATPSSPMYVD
Sequence of P70S6K (P23443 whole entry): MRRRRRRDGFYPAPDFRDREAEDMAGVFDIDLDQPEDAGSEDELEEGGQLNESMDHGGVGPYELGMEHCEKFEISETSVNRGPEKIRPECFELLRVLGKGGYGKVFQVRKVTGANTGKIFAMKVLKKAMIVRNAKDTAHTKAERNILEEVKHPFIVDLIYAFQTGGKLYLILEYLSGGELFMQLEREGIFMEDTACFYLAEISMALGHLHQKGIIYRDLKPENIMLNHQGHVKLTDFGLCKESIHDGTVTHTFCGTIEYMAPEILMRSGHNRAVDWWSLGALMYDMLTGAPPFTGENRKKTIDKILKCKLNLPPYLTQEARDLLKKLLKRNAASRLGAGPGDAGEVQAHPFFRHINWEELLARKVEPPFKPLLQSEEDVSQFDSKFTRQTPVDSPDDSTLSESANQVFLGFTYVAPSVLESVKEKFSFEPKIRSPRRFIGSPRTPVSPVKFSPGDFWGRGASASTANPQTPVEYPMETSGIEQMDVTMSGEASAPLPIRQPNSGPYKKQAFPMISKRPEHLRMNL
Sequence of HCK (P08631 whole entry): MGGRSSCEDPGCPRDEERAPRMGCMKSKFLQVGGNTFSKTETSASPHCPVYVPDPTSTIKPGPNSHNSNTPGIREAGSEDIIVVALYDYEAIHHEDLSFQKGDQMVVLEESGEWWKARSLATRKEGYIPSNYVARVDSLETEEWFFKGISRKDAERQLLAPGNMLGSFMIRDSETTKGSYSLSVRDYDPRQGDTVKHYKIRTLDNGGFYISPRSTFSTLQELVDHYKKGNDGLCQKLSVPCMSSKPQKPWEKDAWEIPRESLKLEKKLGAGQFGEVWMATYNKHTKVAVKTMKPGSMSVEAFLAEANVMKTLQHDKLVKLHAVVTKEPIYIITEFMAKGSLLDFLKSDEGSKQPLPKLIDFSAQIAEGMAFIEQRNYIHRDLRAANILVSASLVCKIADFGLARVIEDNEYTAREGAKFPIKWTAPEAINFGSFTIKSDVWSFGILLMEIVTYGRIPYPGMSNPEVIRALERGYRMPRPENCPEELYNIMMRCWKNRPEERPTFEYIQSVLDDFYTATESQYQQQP

## COC1CN(C(=O)c2ccc3c(N)ncc(-c4ccc(-c5cnn(C)c5)cc4)c3n2)C1 [Compound 51]
P70S6K
  percentage effect: -25%
MAPKAP-K3
  percentage effect: -15%
In vitro
  microsomal CLint at 1 µM: 61 µL/min/mg
[1]
  residence time: 15 ± 2 min
PKA
  percentage effect: -1%
Caco-2
  Caco-2 ER: 5.9
  Caco-2 PappA-B: 28.6 × 10^–6 cm/s
Aldehyde oxidase
  AO substrate (Enzyme assay): No
CDK9/CYCLINT1
  percentage effect: 8%

## COC1CN(C(=O)c2ccc3c(N)ncc(-c4ccc(-c5cnn(C)c5)cc4)c3c2)C1 [Compound 59]
ABL (M351T)
  percentage effect: 2%
HCK
  percentage effect: 0%
PI3 KINASE (H1047R/P85A)
  percentage effect: -2%
CHK2(R145W)
  percentage effect: -6%
PI3 KINASE (E542K/P85A)
  percentage effect: -3%
cMET (M1268T)
  percentage effect: 5%
BTK(R28H)
  percentage effect: -12%
FGFR2(N549H)
  percentage effect: -14%
FLT3(D835Y)
  percentage effect: -10%
cMET (Y1248H)
  percentage effect: 6%
EGFR(L858R)
  percentage effect: -15%
MKK4
  percentage effect: 3%
ABL(Y253F)
  percentage effect: -6%
TIE2(R849W)
  percentage effect: -12%
[…](V561D)
  percentage effect: -9%
CHK2(I157T)
  percentage effect: -9%
cMET (Y1248C)
  percentage effect: -19%
RET (V804L)
  percentage effect: -9%
SAPK2A(T106M)
  percentage effect: 1%
TIE2(Y897S)
  percentage effect: -6%
